How the values were obtained:
[1] = MTT cell viability assay in RAW 264.7 cells; format: cell-based, murine; details: mouse; for CC50 at 24 hr: read-out: Cell viability: CC50 (cytotoxic concentration that produces 50% cell survival); for viability at 24 hr, 10 µM: 10 μM compound, read-out: Cell viability: Survival rate at 10 μM (%)
Description: (§1) Cell viability was measured by MTT assay in RAW 264.7 cells upon treatment with 10 μM compounds for 24 hr. CC50 (the cytotoxic concentration that produces 50% cell survival) were identified in this example.

[2] = system: RAW 264.7 cells; assay: MTT cell viability assay in RAW 264.7 cells; format: cell-based, murine; details: 24 hr; for Cell viability: Survival rate at 10 μM (%): 10 μM compound; for CC50: read-out: Cell viability: CC50 (cytotoxic concentration that produces 50% cell survival)
Description: as §1

[3] = system: RAW 264.7 cells; assay: TRAP staining and activity assay of RANKL-induced osteoclastogenesis; format: cell-based, murine; details: 10 μM compound; for Osteoclastogenesis: TRAP+ MNCS at 10 μM (%): 100 ng/mL RANKL, 5 days, relative to RANKL without drug; for Inhibitory activity on osteoclastogenesis (in words) / Inhibition of osteoclast differentiation, TRAP staining (FIG. 1 C, D, E): RANKL
Description: The murine RAW 264.7 cell was an osteoclast precursor cell. RAW 264.7 cells were cultured in DMEM (Gibco BRL), 10% FBS, Penicillin (100 U/L), Streptomycin (100 U/L), 5% CO2, 37° C. To induce the murine RAW 264.7 cells differentiation, the cells were cultured in 96-well culture dish 10^4 cell per dish with α-MEM, 10% FBS, 2 mM L-glutamate, Penicillin (100 U/L), Streptomycin (100 U/L), with or without 100 ng/mL RANKL for 5 days, and added or not added tested drug, replaced the fresh medium at 3 day. The cells were TRAP^+ stained and analyzed the activity, then washed the cells by PBS and fixed by 3.7% formaldehyde for 30 minutes, then washed by PBS. The cells were reacted in Leukocyte Acid Phosphatase Assay kit (Sigma) at 37° C. for 1 hr, and washed by distilled water for three times and counted the multinucleated cells numbers by microscopy.
After treatment with RANKL and 10 μM compounds in RAW 264.7, the osteoclasts were counted percentage of the TRAP^+ cells (TRAP^+ MNCS %, the denominator was the number of cells which was treated with RANKL but without drug, and the numerator was the number of cells which was treated with RANKL and drug).

[4] = system: RAW 264.7 cells; assay: Pit formation assay (bone resorption); format: cell-based, murine; details: RANKL, 10 μM compound
Description: In pit formation assay, RAW 264.7 cells were cultured in DMEM (Gibco BRL) 10% FBS, Penicillin (100 U/L), streptomycin (100 U/L), 5% CO2 at 37° C. To induce the murine RAW 264.7 cell differentiation, the cells were cultured in 96-well culture dish 10^4 cell per dish with α-MEM, 10% FBS, 2 mM L-glutamate, Penicillin (100 U/L), Streptomycin (100 U/L), with or without 100 ng/mL RANKL for 5 days in the present or absent tested drug, replaced the fresh medium at 3 day. The 24-well plate were washed by PBS and added in 0.5 mL/well chloride solution, stood at room-temperature for 10 minutes for destroying the cell, then stained with 0.1% Toluidine Blue 0.5 mL/well, and washed by distilled water for three times and photographed under microscopy.

Row | Structure (SMILES) | melting point [°C] | CC50 at 24 hr [1] [µM] | Cell viability: Survival rate at 10 μM (%) [2] [%] | Osteoclastogenesis: TRAP+ MNCS at 10 μM (%) [3] [%] | Inhibitory activity on osteoclastogenesis (in words) [3] | viability at 24 hr, 10 µM [1] [%] | Inhibition of osteoclast differentiation, TRAP staining (FIG. 1 C, D, E) [3] | Bone resorption, erosion of bone slices (FIG. 2 C, D) [4] | CC50 [2] [µM]
1 | COc1ccc(C(=O)O)c(O)c1 [2-hydroxy-4-methoxy-benzoic acid, reference compound] |  | > 40 | 99.4 ± 7.6 | 79.6 ± 8.3 | did not perform significant inhibitory activity |  |  |  | 
2 | O=C(O)c1ccccc1O [Salicylic acid, reference compound] |  | > 40 |  |  | did not perform significant inhibitory activity |  |  |  | 
3 | O=C(Nc1ccc(Cl)cc1F)c1ccccc1O [compound 1a, N-(4-chloro-2-fluorophenyl)-2-hydroxybenzamide] | 184 to 185 | 21.3 ± 3.4 |  | 49.4±5.4 |  | 93 ± 3.1 |  |  | 
4 | COc1ccccc1C(=O)Nc1ccc(Cl)cc1F [compound 1b, N-(4-chloro-2-fluorophenyl)-2-methoxybenzamide] | 111 to 112 | > 40 | 101.8 ± 4.5 | 86.0 ± 9.9 |  |  |  |  | 
5 | O=C(Nc1ccc(Cl)cc1F)c1ccccc1OCc1ccc(F)cc1F [compound 1c, N-(4-chloro-2-fluorophenyl)-2-((2,4-difluorobenzyl)oxy)benzamide] | 121 to 122 | > 40 | 107.2 ± 4.5 | 74.6 ± 6.2 |  |  |  |  | 
6 | O=c1oc2ccccc2c(=O)n1-c1ccc(Cl)cc1F [compound 1d, 3-(4-chloro-2-fluorophenyl)-2H-benzo[e][1,3]oxazine-2,4(3H)-dione] |  | > 40 | 97.9 ± 2.0 | 3.4±2.1 |  |  | significant inhibition of differentiation | the resorption hole was reduced | 

Continued, in another order:

Row | melting point [°C] | Structure (SMILES) | CC50 at 24 hr [1] [µM] | Cell viability: Survival rate at 10 μM (%) [2] [%] | Osteoclastogenesis: TRAP+ MNCS at 10 μM (%) [3] [%] | Inhibitory activity on osteoclastogenesis (in words) [3] | viability at 24 hr, 10 µM [1] [%] | Inhibition of osteoclast differentiation, TRAP staining (FIG. 1 C, D, E) [3] | Bone resorption, erosion of bone slices (FIG. 2 C, D) [4] | CC50 [2] [µM]
7 | 186 to 187 | COc1ccc(C(=O)Nc2ccc(Cl)cc2F)c(O)c1 [compound 2a, N-(4-chloro-2-fluorophenyl)-2-hydroxy-4-methoxybenzamide] |  | 103.0 ± 2.8 | 23.8±3.4 |  |  | significant inhibition of differentiation | the resorption hole was reduced | 32.3 ± 4.9
8 | 155 to 156 | COc1ccc(C(=O)Nc2ccc(Cl)cc2F)c(OC)c1 [compound 2b, N-(4-chloro-2-fluorophenyl)-2,4-dimethoxybenzamide] |  | 52.9 ± 2.8 | 60.2 ± 3.6 |  |  |  |  | 13.6 ± 1.2
9 | 134 to 135 | COc1ccc(C(=O)Nc2ccc(Cl)cc2F)c(OCc2ccc(F)cc2F)c1 [compound 2c, N-(4-chloro-2-fluorophenyl)-2-((2,4-difluorobenzyl)oxy)-4-methoxybenzamide] | > 40 | 107.3 ± 4.4 | 68.7 ± 4.6 |  |  |  |  | 
10 | 203 to 204 | COc1ccc2c(=O)n(-c3ccc(Cl)cc3F)c(=O)oc2c1 [compound 2d, 3-(4-chloro-2-fluorophenyl)-7-methoxy-2H-benzo[e][1,3]oxazine-2,4(3H)-dione] | > 40 | 100.5 ± 2.4 | 36.0±1.8 |  |  | significant inhibition of differentiation |  | 
11 | 186 to 187 | O=C(Nc1ccc(F)cc1F)c1ccccc1O [compound 3a, N-(2,4-difluorophenyl)-2-hydroxybenzamide] | > 40 |  | 85.9 ± 6.2 |  | 104 ± 3.6 |  |  | 
12 | 86 to 87 | COc1ccccc1C(=O)Nc1ccc(F)cc1F [compound 3b, N-(2,4-difluorophenyl)-2-methoxybenzamide] | > 40 | 108.5 ± 4.0 | 89.1 ± 5.1 |  |  |  |  | 
13 | 135 to 136 | O=C(Nc1ccc(F)cc1F)c1ccccc1OCc1ccc(F)cc1F [compound 3c, 2-((2,4-difluorobenzyl)oxy)-N-(2,4-difluorophenyl)benzamide] | > 40 | 101.1 ± 3.2 | 97.6 ± 6.0 |  |  |  |  | 
14 | 182 to 183 | O=c1oc2ccccc2c(=O)n1-c1ccc(F)cc1F [compound 3d, 3-(2,4-difluorophenyl)-2H-benzo[e][1,3]oxazine-2,4(3H)-dione] | > 40 |  | 69.8 ± 7.7 |  | 105 ± 6.3 |  |  | 
15 | 180 to 181 | COc1ccc(C(=O)Nc2ccc(F)cc2F)c(O)c1 [compound 4a, N-(2,4-difluorophenyl)-2-hydroxy-4-methoxybenzamide] | > 40 |  | 41.3±8.6 |  | 105 ± 4.7 |  |  | 
16 | 138 to 139 | COc1ccc(C(=O)Nc2ccc(F)cc2F)c(OC)c1 [compound 4b, N-(2,4-difluorophenyl)-2,4-dimethoxybenzamide] | > 40 | 102.5 ± 9.3 | 93.0 ± 7.7 |  |  |  |  | 
17 | 131 to 132 | COc1ccc(C(=O)Nc2ccc(F)cc2F)c(OCc2ccc(F)cc2F)c1 [compound 4c, 2-((2,4-difluorobenzyl)oxy)-N-(2,4-difluorophenyl)-4-methoxybenzamide] | > 40 | 106.0 ± 8.8 | 66.2 ± 8.1 |  |  |  |  | 
18 | 138 to 139 | COc1ccc2c(=O)n(-c3ccc(F)cc3F)c(=O)oc2c1 [compound 4d, 3-(2,4-difluorophenyl)-7-methoxy-2H-benzo[e][1,3]oxazine-2,4(3H)-dione] | > 40 |  | 87.9 ± 9.1 |  | 102 ± 9.1 |  |  | 
